These results are taken from patent publication US7517867B2, “Topoisomerase-targeting agents” (Rutgers, The State University of New Jersey, priority 2002, dated 2009).

One may read the melting point as the temperature of the solid-liquid transition. For `COc1cc2c(cc1OC)C(CO)Cc1c-2cnc2cc3c(cc12)OCO3` (centres unmarked) [Compound 208], the melting point was in the range of 231 to 233 °C.

Regarding `COc1cc2c(cc1OC)C(CC#N)Cc1c-2cnc2cc3c(cc12)OCO3` (centres unmarked) [Compound 209], the melting point was in the range of 212 to 214 °C.
